According to US20250042891A1, “Compound containing structure of a heteroaromatic ring, pharmaceutical composition thereof and application thereof” (SHANGHAI YINGLI PHARMACEUTICAL CO., LTD, priority 2023, published 2025):
pIC50: −log10 of the molar value.

What was measured:
PARG (389-976) = PARG (389-976) (Homo sapiens (Human), UniProt Q86W56); assay: PARG enzyme inhibition assay (TR-FRET); type: biochemical
Experimental: PARG in vitro assays were conducted in standard 384-well plates in a total volume of 15 μL. 5 μL of PARG (389-976) (manufactured by Chempartner Chemical Co., Ltd.) in buffer (50 mM Tris-HCL 7.5, 30 mM KCl, 1 mM EDTA, 3 mM DTT, tween-20 0.01%, BSA 0.025%) was added at a final concentration of 1.5 pM to the 384-well plates containing the compounds to be tested, which was incubated for 30 min at room temperature. To the above mixture was added 5 μL Bio PARylated His-TEV-PARP1(2-1014) substrate (manufactured by Chempartner Chemical Co., Ltd.) at a final concentration of 12 nM, after addition, the resulting mixture was incubated for 30 minutes at room temperature. Then to the mixture was added detection reagent (5 μL) which was buffered with 50 mM Tris-HCL 7.5, 30 mM KCl, 1 mM EDTA, 3 mM DTT, tween-20 0.01%, BSA 0.025%, and consisted of 3 μM of compound PDD00017273 and 9 nM Mab anti-6HIS XL665 (Cisbio: 61HISXLA) and 0.9 nM streptavidin affinity terbium cryptate (Cisbio:610SATLA), all at 3× working concentrations (final concentrations of 1 μM, 3 nM and 0.3 nM, respectively). After 120 min incubation in the dark at room temperature, TR-FRET signals were measured at Ex 340 and Em 665 and Em 615. The ratio for each well was calculated as Em 665/Em 615 and the compound inhibition rate was calculated based on the obtained data.

HCC1428 = assay: CTG assay for proliferation inhibition of cell lines; type: cell-based; settings: HCC1428, 7 days, CellTiter Glo
Experimental: (§1) The assay was conducted on either 384-well plates or 96-well plates. The procedures are as follows:
(§2) The cell suspensions were added to 384- or 96-well plates (384-well plate: 50 μL; 96-well plate: 100 μL) except for peripheral wells. The plates were incubated in a carbon dioxide incubator overnight, HCC1395, HCC1428 and NCI-H460 were placed in a carbon dioxide incubator of 5%, […] overnight. Prepared compounds (10 concentration gradients by serial 3-fold dilution) were added to the wells using the HPD300 micro-dosing instrument. The cell plates were incubated in a carbon dioxide incubator for 7 days. HCC1395, HCC1428 and NCI-H460 were incubated in a 5%, 37° CO2 incubator. On the day of plate measurement, 384- or 96-well plates were first equilibrated at room temperature for 10-30 minutes, then to the 384- or 96-well plate was added CellTiter Glo reagent (384-well plate: 25 μL; 96-well plate: 100 μL), shaken for 10 minutes away from light, and incubated for 10 minutes. The incubated plates were placed into Victor NIVO reader plates, and the pharmacodynamic inhibition curves were plotted and IC50 values were calculated using XLFit.

HCC1395 = assay: as above; type: cell-based; settings: HCC1395, 7 days, CellTiter Glo
Experimental: as §1, §2

[1] = class symbol, Bio PARylated His-TEV-PARP1 substrate, TR-FRET
[2] = numeric value in parentheses under the class symbol

Chain of PARG (389-976) (Q86W56 389-976): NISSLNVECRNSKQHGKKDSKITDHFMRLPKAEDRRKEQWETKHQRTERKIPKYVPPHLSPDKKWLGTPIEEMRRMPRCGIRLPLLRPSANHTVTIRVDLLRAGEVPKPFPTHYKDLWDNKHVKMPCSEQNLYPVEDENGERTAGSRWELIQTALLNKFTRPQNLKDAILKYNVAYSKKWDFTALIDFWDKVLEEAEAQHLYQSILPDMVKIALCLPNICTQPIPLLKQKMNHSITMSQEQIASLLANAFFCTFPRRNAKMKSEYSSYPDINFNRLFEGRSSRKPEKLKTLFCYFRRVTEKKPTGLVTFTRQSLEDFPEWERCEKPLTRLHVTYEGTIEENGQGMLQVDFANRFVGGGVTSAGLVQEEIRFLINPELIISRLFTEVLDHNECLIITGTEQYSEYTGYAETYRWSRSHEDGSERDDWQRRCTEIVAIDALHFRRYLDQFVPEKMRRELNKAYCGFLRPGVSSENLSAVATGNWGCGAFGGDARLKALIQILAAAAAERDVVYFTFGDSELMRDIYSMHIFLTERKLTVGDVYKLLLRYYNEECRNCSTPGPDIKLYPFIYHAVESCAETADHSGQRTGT

Structure (SMILES) | pIC50 (PARG (389-976); [1]) | pIC50 (PARG (389-976); [2]) | IC50 (HCC1428) | IC50 (HCC1395)
CN(C)S(=O)(=O)N1CCN(c2cc(S(=O)(=O)NC3(C#N)CC3)cc3c(-c4nnc(C(F)F)s4)nn(C)c23)CC1 [Compound 3] | 8.00 to 9.00 | 8.79 | – | 0.386 µM
CC(C)S(=O)(=O)N1CCC=C(c2cc(S(=O)(=O)NC3(C#N)CC3)cc3c(-c4nnc(C(F)F)s4)nn(C)c23)C1 [Compound 4] | 8.00 to 9.00 | – | – | –
CC(C)S(=O)(=O)N1CCN(c2cc(S(=O)(=O)NC3(C#N)CC3)cc3c2cnn3-c2nnc(C(F)F)s2)CC1 [Compound 8] | 8.00 to 9.00 | – | – | –
CC(C)S(=O)(=O)N1CC=C(c2cc(S(=O)(=O)NC3(C#N)CC3)cc3c(-c4nnc(C(F)F)s4)csc23)CC1 [Compound 10] | 8.00 to 9.00 | – | – | –
CC(C)CS(=O)(=O)N1CC=C(c2cc(S(=O)(=O)NC3(C#N)CC3)cc3c(-c4nnc(C(F)F)s4)nn(C)c23)CC1 [Compound 13] | 8.00 to 9.00 | – | – | –
CC(C)S(=O)(=O)N1CC=C(c2cc(S(=O)(=O)NC3(C(N)=O)CC3)cc3c(-c4nnc(C(F)F)s4)nn(C)c23)CC1 [Compound 17] | 8.00 to 9.00 | – | – | –
CC(C)S(=O)(=O)N1CCC(O)(c2cc(S(=O)(=O)NC3(C#N)CC3)cc3c(-c4nnc(C(F)F)s4)n[nH]c23)CC1 [Compound 27] | 8.00 to 9.00 | – | – | –
CC(C)S(=O)(=O)N1CCC(O)(c2cc(S(=O)(=O)NC3(C#N)CC3)cc3c(-c4nnc(C(F)F)s4)nn(C)c23)CC1 [Compound 28] | 8.00 to 9.00 | – | – | –
CC(C)SC1CC=C(c2cc(S(=O)(=O)NC3(C#N)CC3)cc3c(-c4nnc(C(F)F)s4)nn(C)c23)CC1 (centres unmarked) [Compound 29] | 7.00 to 8.00 | – | – | –
CC(C)S(=O)(=O)N1CCC(c2cc(S(=O)(=O)NC3(C#N)CC3)cc3c(-c4nnc(C(F)F)s4)nn(C)c23)=C(C(=O)O)C1 [Compound 34] | 7.00 to 8.00 | – | – | –
CC(C)Sc1ncc(-c2cc(S(=O)(=O)NC3(C#N)CC3)cc3c(-c4nnc(C(F)F)s4)nn(C)c23)cn1 [Compound 41] | 6.00 to 7.00 | – | – | –
CC(C)[S+]([O-])c1ncc(-c2cc(S(=O)(=O)NC3(C#N)CC3)cc3c(-c4nnc(C(F)F)s4)nn(C)c23)cn1 (centres unmarked) [Compound 42] | 8.00 to 9.00 | – | – | –
CC(C)S(=O)(=O)c1ncc(-c2cc(S(=O)(=O)NC3(C#N)CC3)cc3c(-c4nnc(C(F)F)s4)nn(C)c23)cn1 [Compound 43] | 6.00 to 7.00 | – | – | –
CC(C)S(=O)(=O)c1ccc(-c2cc(S(=O)(=O)NC3(C#N)CC3)cc3c(-c4nnc(C(F)(F)F)s4)nn(C)c23)cn1 [Compound 47] | 8.00 to 9.00 | – | 1.91 µM | –
CC(C)S(=O)(=O)c1ccc(-c2cc(S(=O)(=O)NC3(C#N)CC3)cc3c(-c4nnc(C(F)(F)F)s4)nn(C)c23)nc1 [Compound 49] | 6.00 to 7.00 | – | – | –
Cn1nc(-c2nnc(C(F)(F)F)s2)c2cc(S(=O)(=O)NC3(C#N)CC3)cc(C3=CCN(S(=O)(=O)c4ccccc4)CC3)c21 [Compound 50] | 7.00 to 8.00 | – | 2.33 µM | –
Cn1nc(-c2nnc(C(F)(F)F)s2)c2cc(S(=O)(=O)NC3(C#N)CC3)cc(C3=CCN(S(=O)(=O)c4cccnc4)CC3)c21 [Compound 51] | 8.00 to 9.00 | – | 2.52 µM | –
CC(C)S(=O)(=O)N1Cc2cn(-c3cc(S(=O)(=O)NC4(C#N)CC4)cc4c(-c5nnc(C(F)F)s5)nn(C)c34)nc2C1 [Compound 52] | 8.00 to 9.00 | – | 1.06 µM | 1.38 µM
CC(C)S(=O)(=O)N1CCC(c2cc(S(=O)(=O)NC3(C#N)CC3)cc3c(-c4nnc(C(F)(F)F)s4)nn(C)c23)=C(C(=O)O)C1 [Compound 54] | 7.00 to 8.00 | – | – | –
CC(C)S(=O)(=O)N1CC=C(c2cc(S(=O)(=O)NC3(C(N)=O)CC3)cc3c(-c4nnc(C(F)(F)F)s4)nn(C)c23)CC1 [Compound 57] | 7.00 to 8.00 | – | – | –
CC(C)S(=O)(=O)N1CC=C(c2cc(S(=O)(=O)NC3(C#N)CC3)cc3c(-c4nnc(C(F)(F)F)s4)nn(Cc4ccccc4)c23)CC1 [Compound 62] | 7.00 to 8.00 | – | – | –
CC(C)S(=O)(=O)c1ccc(-c2cc(S(=O)(=O)NC3(C#N)CC3)cc3c(-c4nnc(C(F)F)s4)nn(C)c23)nc1 [Compound 63] | 6.00 to 7.00 | – | – | –
CC(C)S(=O)(=O)N1CC=C(c2cc(S(=O)(=O)NC3(C#N)CC3)cc3c2ccn3-c2nnc(C(F)(F)F)s2)CC1 [Compound 65] | 8.00 to 9.00 | – | – | –
CC(C)S(=O)(=O)N1CC=C(c2cc(S(=O)(=O)NC3(C#N)CC3)cc3c(-c4nnc(C(F)F)s4)nn(CC(N)=O)c23)CC1 [Compound 66] | 8.00 to 9.00 | – | – | –
CC(C)S(=O)(=O)N1CC=C(c2cc(S(=O)(=O)NC3(C#N)CC3)cc3c2nnn3-c2nnc(C(F)(F)F)s2)CC1 [Compound 80] | 7.00 to 8.00 | – | – | –
CC(C)S(=O)(=O)N1CC=C(c2cc(S(=O)(=O)NC3(C#N)CC3)cc3c(-c4cc(C(F)(F)F)nn4C)nn(C)c23)CC1 [Compound 81] | 6.00 to 7.00 | – | – | –
CC(C)S(=O)(=O)N1CCN(c2cc(S(=O)(=O)NC3(C#N)CC3)cc3c(-c4nnc(C(F)(F)F)s4)nn(C)c23)C=N1 [Compound 85] | > 9.00 | – | – | –
Cc1cc(Cn2c(=O)n(Cc3cnc(C)s3)c(=O)c3cc(S(=O)(=O)NC4(C)CC4)ccc32)n(C)n1 [PDD 00017273, reference compound] | 8.00 to 9.00 | – | – | –

Other lines, results leading:

pIC50 (PARG (389-976); [1]) | pIC50 (PARG (389-976); [2]) | IC50 (HCC1428) | IC50 (HCC1395) | Structure (SMILES)
> 9.00 | 9.70 | – | – | COCCn1nc(-c2nnc(C(F)F)s2)c2cc(S(=O)(=O)NC3(C#N)CC3)cc(C3=CCN(S(=O)(=O)C(C)C)CC3)c21 [Compound 1]
> 9.00 | 9.57 | 0.413 µM | – | COCCn1nc(-c2nnc(C(F)F)s2)c2cc(S(=O)(=O)NC3(C#N)CC3)cc(N3CCN(S(=O)(=O)C(C)C)CC3)c21 [Compound 2]
> 9.00 | – | – | 0.442 µM | CC(C)S(=O)(=O)N1CC=C(c2cc(S(=O)(=O)NC3(C#N)CC3)cc3c(-c4nnc(C(F)F)o4)nn(C)c23)CC1 [Compound 6]
> 9.00 | – | – | – | Cn1nc(-c2nnc(C(F)F)s2)c2cc(S(=O)(=O)NC3(C#N)CC3)cc(C3=CCN(S(=O)(=O)C4CC4)CC3)c21 [Compound 11]
> 9.00 | – | 1.7 µM | – | CC(C)[S+]([O-])c1ccc(-c2cc(S(=O)(=O)NC3(C#N)CC3)cc3c(-c4nnc(C(F)(F)F)s4)nn(C)c23)cn1 (centres unmarked) [Compound 46]
> 9.00 | – | 0.207 µM | 0.392 µM | CC(C)S(=O)(=O)N1CC=C(c2cc(S(=O)(=O)NC3(C#N)CC3)cc3c(-c4noc(C(F)(F)F)n4)nn(C)c23)CC1 [Compound 53]
> 9.00 | – | 0.208 µM | 0.836 µM | CC(C)S(=O)(=O)N1CCC(c2cc(S(=O)(=O)NC3(C#N)CC3)cc3c(-c4nnc(C(F)(F)F)s4)nn(C)c23)=C(C(N)=O)C1 [Compound 55]
> 9.00 | – | 0.0472 µM | 0.0475 µM | CC(C)S(=O)(=O)N1CCN(c2c(F)c(S(=O)(=O)NC3(C#N)CC3)cc3c(-c4nnc(C(F)(F)F)s4)nn(C)c23)CC1 [Compound 56]
> 9.00 | – | 1.68 µM | 1.63 µM | CC(C)S(=O)(=O)N1CC=C(c2cc(S(=O)(=O)NC3(C#N)CC3)cc3c(-c4nnc(C(F)(F)F)s4)nn(CC4CNC4)c23)CC1 [Compound 61]
> 9.00 | – | 0.0882 µM | – | CC(C)S(=O)(=O)N1CCC(c2cc(S(=O)(=O)NC3(C#N)CC3)cc3c(-c4nnc(C(F)(F)F)s4)nn(C)c23)=C(C#N)C1 [Compound 64]
> 9.00 | – | 0.203 µM | – | CC(C)S(=O)(=O)N1CC=C(c2cc(S(=O)(=O)NC3(C#N)CC3)cc3c(-c4nnc(C(F)F)s4)nn(C)c23)C(F)(F)C1 [Compound 67]
> 9.00 | – | 0.47 µM | – | CC(C)S(=O)(=O)N1CCC(c2cc(S(=O)(=O)NC3(C#N)CC3)cc3c(-c4nnc(C(F)F)s4)nn(C)c23)=C(F)C1 [Compound 68]
> 9.00 | – | 0.343 µM | 0.27 µM | CC(C)S(=O)(=O)N1CCC(c2cc(S(=O)(=O)NC3(C#N)CC3)cc3c(-c4nnc(C(F)F)s4)nn(C)c23)=C(C=O)C1 [Compound 70]
> 9.00 | – | 0.342 µM | 0.308 µM | CC(C)S(=O)(=O)N1CCC(c2cc(S(=O)(=O)NC3(C#N)CC3)cc3c(-c4nnc(C(F)F)s4)nn(C)c23)=C(CN(C)C)C1 [Compound 71]
> 9.00 | – | – | 0.0352 µM | CC1=C(c2cc(S(=O)(=O)NC3(C#N)CC3)cc3c(-c4nnc(C(F)(F)F)s4)nn(C)c23)CCN(S(=O)(=O)C(C)C)C1 [Compound 75]
